Our source for the melting point values is patent publication US6423708B1, “Aralkyl and aralkylidene heterocyclic lactams and imides” (Pfizer INC, priority 1996, dated 2002).

In the case of `CN1CCN(c2ccccc2C=C2SCCN(Cc3ccccc3)C2=O)CC1` [Example 4, 4-Benzyl-2-[2-(4-methylpiperazin-1-yl)-benzylidene]-thiomorpholin-3-one], the melting point – broadly, the temperature of the solid-liquid transition – lay within 106 to 108 °C.

Take `CN1CCN(c2cccc(F)c2C=C2SCCN(c3ccc(Cl)c(Cl)c3)C2=O)CC1` [Example 11, 4-(3,4-Dichlorophenyl)-2-[2-fluoro-6-(4-methylpiperazin-1-yl)-benzylidene]-thiomorpholin-3-one]: the melting point was 146 to 147 °C.

For the compound `CN1CCN(c2ccccc2C=C2SCCNC2=O)CC1` [Example 10, 2-[2-(4-Methylpiperazin-1-yl)-benzylidene]-thiomorpholin-3-one], the melting point lay in the range of 133 to 135 °C.

Turning to `CN1CCN(c2ccccc2C=C2OCCN(c3ccc(Cl)c(Cl)c3)C2=O)CC1` [Example 12, 4-(3,4-Dichlorophenyl)-2-[2-(4-methylpiperazin-1-yl)-benzylidene]-morpholin-3-one], the melting point was 169 to 171 °C (dec.).

As to `CN1CCN(c2ccccc2C=C2SCCN(c3ccc(C(F)(F)F)cc3)C2=O)CC1.Cl.O.O.O` (hydrate or solvate), the melting point is 128 to 134 °C.

In turn, `CN1CCN(c2ccccc2C=C2SC(=O)N(c3ccc(C(F)(F)F)cc3)C2=O)CC1.Cl.O.O` (hydrate or solvate) showed a melting point of 159 to 177 °C.

As for `CN1CCN(c2ccccc2C=C2SCCN(Cc3ccc(Cl)c(Cl)c3)C2=O)CC1.Cl.O.O` (hydrate or solvate), the melting point is 90 to 115 °C.

In turn, `CN1CCN(c2ccccc2C=C2NC(=O)N(c3ccc(Cl)cc3)C2=O)CC1` [Example 2, 3-(4-Chlorophenyl)-5-[2-(4-methylpiperazin-1-yl)-benzylidene]-imidazolidine-2,4-dione] had a melting point of 193 to 193.5 °C.
